# Laboratory results from article PMC5514907, “Targeting of the breast cancer microenvironment with a potent and linkable oxindole based antiangiogenic small molecule” (Oncotarget, 2017).
# “Also recorded” adds a separate entry of the source. Like-named read-outs stand apart in the source and are kept apart here.
# What was measured:
# [1] = molecular target: VEGFR-2, PDGFR-β, KIT, FLT3 and RET; experiment: Biochemical tyrosine kinase assay, RTK panel summary; details: range over the RTK targets of sunitinib; read-out: IC50 over most of the RTKs
# [2] = tested on: panel of BrCa cell lines and HUVEC; experiment: MTT cytotoxicity assay, summary over all cell lines; format: cell-based; details: Homo sapiens, range over six BrCa cell lines and HUVEC
# [3] = tested on: Tg(kdrl:gfp)^s843 transgenic embryos; format: in vivo; details: for intersomitic vessel (ISV) formation / angiogenic sprouting at 48 hpf: treated from 24 to 48 hpf
# [4] = tested on: SKBR3; experiment: MTT cytotoxicity assay; format: cell-based; details: Homo sapiens, SK-BR-3
# [5] = molecular target: T1, VEGFR-2 (Homo sapiens, UniProt P35968); experiment: Biochemical tyrosine kinase assay (trans-phosphorylation, GST-fusion protein); parameters: 789-end; purchased Sigma Aldrich K2643; details: in vitro kinase activity, ± SD
# Target sequence in this assay (P35968 789-1356 limits assumed): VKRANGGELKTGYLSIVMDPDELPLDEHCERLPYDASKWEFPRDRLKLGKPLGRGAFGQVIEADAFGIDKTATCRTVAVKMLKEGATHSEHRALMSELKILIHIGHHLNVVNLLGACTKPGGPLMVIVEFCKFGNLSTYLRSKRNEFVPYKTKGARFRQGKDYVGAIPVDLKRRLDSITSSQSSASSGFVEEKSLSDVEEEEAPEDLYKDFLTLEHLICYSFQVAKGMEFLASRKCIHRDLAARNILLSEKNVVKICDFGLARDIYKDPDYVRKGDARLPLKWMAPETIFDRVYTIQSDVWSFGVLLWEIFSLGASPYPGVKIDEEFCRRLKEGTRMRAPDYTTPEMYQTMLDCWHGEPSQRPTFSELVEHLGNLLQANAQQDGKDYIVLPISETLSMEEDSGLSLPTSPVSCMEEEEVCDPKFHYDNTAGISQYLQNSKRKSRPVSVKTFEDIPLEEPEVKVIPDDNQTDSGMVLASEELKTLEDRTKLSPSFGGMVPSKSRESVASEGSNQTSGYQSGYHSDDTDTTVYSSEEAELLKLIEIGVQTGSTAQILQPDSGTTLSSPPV
# [6] = tested on: MCF7; experiment: MTT cytotoxicity assay; format: cell-based; details: Homo sapiens
# [7] = tested on: E0771 BrCa murine cell line; experiment: In vivo antitumor efficacy, syngeneic model, orthotopic implantation; parameters: species or system C57BL/6 mice; details: 100 μmol/Kg daily IP
# Excerpt: (§1) Despite the efficacy and favourable safety profile of SAP in xenografted models of primary BrCa, a critical question that remained was its evaluation in a more clinically relevant disease model of BrCa that would involve interaction of cancer with the immune system, which is crucial for the progression of the disease.
# [8] = tested on: HCC1954 xenograft; details: HCC1954, 100 μmol/Kg/day IP; for average tumor size at d18: 18 days, vehicle 428 ± 101; for neo-angiogenesis upon sacrifice: d18; for average tumor weight upon sacrifice (d18): vehicle 0.26 ± 0.07
# [9] = tested on: HCC1954 xenograft; experiment: Immunohistochemistry (Ki-67, CD31) of tumor sections; format: in vivo, NOD/SCID mice
# [10] = molecular target: T2, KIT (Homo sapiens, UniProt P10721); experiment: Biochemical tyrosine kinase assay (trans-phosphorylation, GST-fusion protein); details: in vitro kinase activity, ± SD
# T2 construct: 544-end; purchased Sigma Aldrich C0624
# [11] = molecular target: T3, PDGFR-β (Mus musculus, UniProt P05622); experiment: Cellular ligand-dependent autophosphorylation assay (Western blot) in NIH/3T3; format: cell-based; details: NIH/3T3, PDGF-BB stimulated, ± SD
# T3 construct: host or cells: NIH/3T3
# [12] = molecular target: T4, PDGFR-β (Homo sapiens, UniProt P09619); experiment: Biochemical tyrosine kinase assay (trans-phosphorylation, GST-fusion protein); details: in vitro kinase activity, ± SD; read-out: IC50 PDGFR-b
# T4 construct: 557-end; purchased Sigma Aldrich G8671
# [13] = tested on: E0771 BrCa murine cell line; experiment: In vivo antitumor efficacy, syngeneic model, ectopic implantation; parameters: species or system C57BL/6 mice; details: 100 μmol/Kg daily IP
# Excerpt: as §1
# [14] = tested on: T47D; experiment: MTT cytotoxicity assay; format: cell-based; details: Homo sapiens
# [15] = molecular target: T5, EGFR (Homo sapiens, UniProt P00533); experiment: Biochemical tyrosine kinase assay (trans-phosphorylation, GST-fusion protein), negative control; details: in vitro kinase activity
# T5 construct: 695-end; purchased Sigma Aldrich SRP5023
# [16] = tested on: HUVEC; experiment: MTT cytotoxicity assay; format: cell-based; details: Homo sapiens
# [17] = molecular target: T6, RET (Homo sapiens, UniProt P07949); experiment: Biochemical tyrosine kinase assay (trans-phosphorylation, GST-fusion protein); details: in vitro kinase activity, ± SD
# T6 construct: 658-end; purchased Sigma Aldrich R7782
# [18] = Pharmacokinetic evaluation in blood by LC-MS/MS; format: in vivo, female NOD/SCID mice; details: for AUC(0-t) / Tmax / Cmax: 100 umol/kg; for AUC(0-t) / Cmax: ± S.D.; for AUC(0-t): read-out: AUC0-24
# Procedure: The in vitro efficacy of SAP was followed by its pharmacokinetic evaluation in mice. Initially, the PK parameters of SAP were compared in an oral versus IP administration (Figure 3).
# Figure 3 Pharmacokinetic evaluation of SAP Female NOD/SCID mice (n = 6) were dosed per os or IP with SAP (100 μmol/Kg) and blood samples were collected at selected time points. Drug levels of SAP were monitored by LC-MS/MS. The AUC for each treatment was calculated as a measure of drug exposure over time. TEXT PRINTED IN THE PICTURE: SAP: Cmax (μmol/L) (± S.D.): 0.2 (± 0.1) (Administration Route: per os; Dose (μmol/Kg): 100); tmax (h): 1 (Administration Route: per os; Dose (μmol/Kg): 100); AUC0-24 (± S.D.) (h) x (μmol/L): 2.5 (± 2.3) (Administration Route: per os; Dose (μmol/Kg): 100); Cmax (μmol/L) (± S.D.): 27 (± 3.6) (Administration Route: Intraperitoneal; Dose (μmol/Kg): 100); tmax (h): 0.25 (Administration Route: Intraperitoneal; Dose (μmol/Kg): 100); AUC0-24 (± S.D.) (h) x (μmol/L): 50.3 (± 15.3) (Administration Route: Intraperitoneal; Dose (μmol/Kg): 100)
# All animal procedures were approved by the Bioethical Committee of BRFAA based on the European Directive 86/609. For pharmacokinetic studies, female NOD/SCID mice (Charles River, Italy) were used (8–10 weeks old, n = 6 per group). Dosing solutions of SAP (100 μmol/Kg) were prepared in 20% 2-hydroxypropyl β-Cyclodextrin in sterile water (HP-b-CD). SAP was administered intraperitoneally (IP) or orally and blood samples were collected and prepared as described previously.
# [19] = tested on: HCC1954; experiment: MTT cytotoxicity assay; format: cell-based; details: Homo sapiens
# [20] = Cardiotoxicity, echocardiography of LV function; format: in vivo, C57BL/6 female mice; details: for %FS (Fractional Shortening) at one week post treatment: 100 μmol/Kg daily IP, vehicle 46.34 ± 0.56
# [21] = tested on: MDA-MB-231; experiment: Wound healing/migration assay; format: cell-based; details: various concentrations, 24 hours
# [22] = tested on: ZR75-1; experiment: MTT cytotoxicity assay; format: cell-based; details: Homo sapiens, ZR-75-1
# [23] = molecular target: T1, VEGFR-2; experiment: Cellular ligand-dependent autophosphorylation assay (Western blot) in HUVEC; format: cell-based; parameters: host or cells: HUVEC; details: VEGF165 stimulated, ± SD
# Target sequence in this assay (P35968 20-1356): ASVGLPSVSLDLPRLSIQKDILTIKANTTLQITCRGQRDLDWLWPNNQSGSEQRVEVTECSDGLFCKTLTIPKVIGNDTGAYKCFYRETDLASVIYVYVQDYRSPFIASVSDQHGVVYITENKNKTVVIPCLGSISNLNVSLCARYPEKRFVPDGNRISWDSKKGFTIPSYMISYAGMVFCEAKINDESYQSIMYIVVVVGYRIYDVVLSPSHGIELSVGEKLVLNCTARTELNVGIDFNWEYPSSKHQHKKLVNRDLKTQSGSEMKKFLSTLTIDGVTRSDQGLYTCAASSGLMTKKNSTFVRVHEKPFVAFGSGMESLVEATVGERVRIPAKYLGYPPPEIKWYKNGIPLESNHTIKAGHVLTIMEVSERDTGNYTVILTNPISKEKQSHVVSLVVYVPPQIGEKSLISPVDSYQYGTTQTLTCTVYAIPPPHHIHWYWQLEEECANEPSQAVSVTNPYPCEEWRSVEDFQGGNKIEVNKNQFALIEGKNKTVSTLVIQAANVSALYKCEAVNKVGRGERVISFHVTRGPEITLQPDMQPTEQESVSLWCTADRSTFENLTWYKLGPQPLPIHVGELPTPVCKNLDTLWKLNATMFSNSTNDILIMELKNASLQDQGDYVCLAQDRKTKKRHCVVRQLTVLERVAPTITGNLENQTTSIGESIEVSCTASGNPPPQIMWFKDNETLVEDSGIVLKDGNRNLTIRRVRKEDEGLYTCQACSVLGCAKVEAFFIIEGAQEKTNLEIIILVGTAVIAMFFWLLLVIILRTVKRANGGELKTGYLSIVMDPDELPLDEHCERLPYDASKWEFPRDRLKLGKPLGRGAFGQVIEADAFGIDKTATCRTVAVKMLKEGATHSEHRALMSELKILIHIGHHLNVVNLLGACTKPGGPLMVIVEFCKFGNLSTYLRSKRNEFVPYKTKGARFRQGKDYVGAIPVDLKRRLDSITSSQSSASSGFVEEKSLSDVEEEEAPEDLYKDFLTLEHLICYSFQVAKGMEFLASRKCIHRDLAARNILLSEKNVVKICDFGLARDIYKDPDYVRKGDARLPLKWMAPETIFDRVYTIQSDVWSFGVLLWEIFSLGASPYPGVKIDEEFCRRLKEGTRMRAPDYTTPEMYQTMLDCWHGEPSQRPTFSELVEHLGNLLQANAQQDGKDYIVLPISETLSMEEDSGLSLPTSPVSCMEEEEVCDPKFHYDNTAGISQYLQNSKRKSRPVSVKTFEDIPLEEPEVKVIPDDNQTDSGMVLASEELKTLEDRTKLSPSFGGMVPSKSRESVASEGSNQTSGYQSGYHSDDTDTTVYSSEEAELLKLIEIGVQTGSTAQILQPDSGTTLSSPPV
# [24] = Hematotoxicity, blood analysis; details: 100 μmol/Kg daily IP, one week; vehicle 2.90 ± 0.8
# [25] = molecular target: T7, FLT3 (Homo sapiens, UniProt P36888); experiment: Biochemical tyrosine kinase assay (trans-phosphorylation, GST-fusion protein); details: in vitro kinase activity, ± SD
# T7 construct: 571–993; purchased Sigma Aldrich F6432
# [26] = Whole embryo LC-MS/MS biodistribution (bioaccumulation); format: in vivo, zebrafish; details: 24h post drug exposure, 50 μM, data not shown
# [27] = tested on: phosphorylation status of 18 kinases; experiment: In vivo kinase activity (PathScan intracellular signaling array) in HCC1954 tumor extracts; parameters: species or system NOD/SCID mice; details: HCC1954 tumors, d18
# [28] = parameters: method as in PMID 26645560; details: IP, equimolar dose, previous results ref 18; cited from earlier work
# [29] = in vivo; details: female, NOD/SCID, mouse, blood, ip, 100 μmol/Kg
# [30] = in vivo; details: female, NOD/SCID, mouse, blood, ip, 100 μmol/Kg; remark: listed apart in the source
# [31] = female, NOD/SCID, mouse, ip, intraperitoneal, blood
# [32] = female, NOD/SCID, mouse, po, per os, blood
# T3 sequence (P05622 32-1098): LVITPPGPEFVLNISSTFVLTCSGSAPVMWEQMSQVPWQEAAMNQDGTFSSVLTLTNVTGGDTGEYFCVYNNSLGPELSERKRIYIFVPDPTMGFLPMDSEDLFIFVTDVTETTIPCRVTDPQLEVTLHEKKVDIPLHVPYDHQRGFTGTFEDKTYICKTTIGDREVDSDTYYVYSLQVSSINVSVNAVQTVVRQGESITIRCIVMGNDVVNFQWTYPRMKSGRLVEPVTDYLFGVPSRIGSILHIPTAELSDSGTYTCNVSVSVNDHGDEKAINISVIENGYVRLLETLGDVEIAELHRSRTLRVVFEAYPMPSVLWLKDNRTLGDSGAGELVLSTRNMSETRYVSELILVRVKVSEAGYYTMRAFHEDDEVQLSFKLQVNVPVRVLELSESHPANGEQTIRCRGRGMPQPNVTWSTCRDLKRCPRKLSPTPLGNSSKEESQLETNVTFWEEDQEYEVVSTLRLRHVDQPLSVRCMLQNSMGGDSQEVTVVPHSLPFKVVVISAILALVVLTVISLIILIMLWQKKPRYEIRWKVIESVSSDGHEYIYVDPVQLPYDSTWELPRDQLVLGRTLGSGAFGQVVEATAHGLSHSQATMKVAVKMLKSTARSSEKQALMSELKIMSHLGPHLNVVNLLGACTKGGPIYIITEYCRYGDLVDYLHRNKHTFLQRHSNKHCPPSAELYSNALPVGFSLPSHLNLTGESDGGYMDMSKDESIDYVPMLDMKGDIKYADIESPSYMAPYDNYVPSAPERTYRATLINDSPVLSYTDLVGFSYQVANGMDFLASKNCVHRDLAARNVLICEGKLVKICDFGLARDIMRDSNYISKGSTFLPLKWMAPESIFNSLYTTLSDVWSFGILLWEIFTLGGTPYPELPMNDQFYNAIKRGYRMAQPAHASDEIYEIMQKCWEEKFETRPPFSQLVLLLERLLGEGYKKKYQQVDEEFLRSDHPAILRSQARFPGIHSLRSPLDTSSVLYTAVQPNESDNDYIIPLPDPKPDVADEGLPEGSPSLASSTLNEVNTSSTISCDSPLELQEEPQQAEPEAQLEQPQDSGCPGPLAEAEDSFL
# T4 sequence (P09619 557-1106 limits assumed): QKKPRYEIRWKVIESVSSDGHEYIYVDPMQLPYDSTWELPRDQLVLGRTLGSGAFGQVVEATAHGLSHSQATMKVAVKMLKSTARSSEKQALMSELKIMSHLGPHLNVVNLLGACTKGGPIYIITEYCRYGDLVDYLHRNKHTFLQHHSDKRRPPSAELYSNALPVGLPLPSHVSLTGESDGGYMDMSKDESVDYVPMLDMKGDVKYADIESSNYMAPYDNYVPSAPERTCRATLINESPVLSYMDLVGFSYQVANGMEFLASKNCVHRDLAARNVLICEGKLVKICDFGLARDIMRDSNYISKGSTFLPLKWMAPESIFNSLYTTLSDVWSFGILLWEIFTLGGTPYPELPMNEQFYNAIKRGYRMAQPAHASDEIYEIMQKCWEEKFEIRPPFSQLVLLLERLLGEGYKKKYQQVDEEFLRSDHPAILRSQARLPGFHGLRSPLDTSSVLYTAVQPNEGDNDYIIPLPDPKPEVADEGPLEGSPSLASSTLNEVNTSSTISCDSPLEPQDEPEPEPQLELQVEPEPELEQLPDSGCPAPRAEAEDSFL
# T2 sequence (P10721 544-976 limits assumed): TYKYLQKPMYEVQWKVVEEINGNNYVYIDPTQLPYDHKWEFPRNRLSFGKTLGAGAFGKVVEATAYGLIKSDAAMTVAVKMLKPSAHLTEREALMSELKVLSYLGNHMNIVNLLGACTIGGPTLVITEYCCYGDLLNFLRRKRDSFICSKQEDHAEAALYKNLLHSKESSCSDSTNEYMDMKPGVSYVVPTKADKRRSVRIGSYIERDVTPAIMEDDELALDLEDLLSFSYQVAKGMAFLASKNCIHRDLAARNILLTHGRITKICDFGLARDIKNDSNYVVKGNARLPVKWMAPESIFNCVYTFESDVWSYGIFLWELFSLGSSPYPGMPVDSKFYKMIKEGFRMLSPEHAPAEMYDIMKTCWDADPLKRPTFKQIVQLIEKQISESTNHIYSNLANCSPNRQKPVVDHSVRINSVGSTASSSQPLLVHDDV
# T6 sequence (P07949 658-1063 limits assumed): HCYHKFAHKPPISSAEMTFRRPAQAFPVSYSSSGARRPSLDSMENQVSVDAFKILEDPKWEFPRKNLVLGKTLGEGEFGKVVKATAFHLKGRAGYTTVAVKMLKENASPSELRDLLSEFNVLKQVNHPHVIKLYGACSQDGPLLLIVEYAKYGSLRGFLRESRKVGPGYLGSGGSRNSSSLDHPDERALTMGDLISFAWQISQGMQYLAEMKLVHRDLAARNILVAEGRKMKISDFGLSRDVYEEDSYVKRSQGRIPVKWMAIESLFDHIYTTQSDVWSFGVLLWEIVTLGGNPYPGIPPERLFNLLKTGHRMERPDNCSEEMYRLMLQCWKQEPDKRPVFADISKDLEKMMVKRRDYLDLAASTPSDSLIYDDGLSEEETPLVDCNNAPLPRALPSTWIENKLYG
# T5 sequence (P00533 695-1210 limits assumed): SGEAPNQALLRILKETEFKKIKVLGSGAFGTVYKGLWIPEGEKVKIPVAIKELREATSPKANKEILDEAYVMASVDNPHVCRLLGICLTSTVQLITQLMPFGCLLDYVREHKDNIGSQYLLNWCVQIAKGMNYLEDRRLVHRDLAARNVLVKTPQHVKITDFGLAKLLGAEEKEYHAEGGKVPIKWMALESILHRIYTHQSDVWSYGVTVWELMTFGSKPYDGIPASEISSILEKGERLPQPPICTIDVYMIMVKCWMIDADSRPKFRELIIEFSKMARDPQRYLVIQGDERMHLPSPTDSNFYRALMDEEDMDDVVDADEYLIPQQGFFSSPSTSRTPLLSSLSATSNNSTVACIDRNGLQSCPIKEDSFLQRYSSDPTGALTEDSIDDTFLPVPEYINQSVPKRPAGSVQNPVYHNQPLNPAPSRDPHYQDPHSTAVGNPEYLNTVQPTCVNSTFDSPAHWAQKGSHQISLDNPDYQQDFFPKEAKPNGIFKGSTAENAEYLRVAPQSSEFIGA
compound,measurement,setting,value
Cc1[nH]c(/C=C2\C(=O)Nc3ccc(F)cc32)c(C)c1C(=O)NCCN1CCNCC1 [SAP],IC50,[1],0.061 to 0.102 µM
same,IC50,[2],6.5 to 15.8 µM
same,toxic or off-target morphological phenotypes,"[3]; 50 μM, 24h treatment",No toxic or off-target morphological phenotypes
same,intersomitic vessel (ISV) formation / angiogenic sprouting at 48 hpf,[3]; 50 μM,uniform GFP expression in intersomitic vessels; also recorded: minor ISV formation inhibition
same,intersomitic vessel (ISV) formation / angiogenic sprouting at 48 hpf,[3]; 100 μM,inhibited angiogenic sprouting; also recorded: more profound
same,IC50,[4],15.5 µM
same,IC50,[5],0.075 µM
same,IC50,[6],10.3 µM
same,tumour growth versus vehicle,[7],significant tumour growth inhibition
same,average tumor size at d18,[8],76 ± 52 mm^3
same,neo-angiogenesis upon sacrifice,[8],only traces of newly formed blood vessels
same,average tumor weight upon sacrifice (d18),[8],0.05 ± 0.02 g
same,average number of CD31+ cells in tumor sections,"[9]; d18, vehicle 42.4 ± 8.3",16.6 ± 7.1
same,Ki-67 assessed PI (proliferation index),"[9]; d18, vehicle 82.3 ± 11.1",19.2 ± 4.9%
same,IC50,[10],0.061 µM
same,IC50,[11],0.076 ± 0.022 µM
same,IC50,[12],0.093 µM
same,tumour growth versus vehicle,[13],significant tumour growth inhibition
same,IC50,[14],6.5 µM
same,IC50,[15],> 10 µM
same,IC50,[16],14.2 µM
same,IC50,[17],0.102 µM
same,concentration at 8 h,"[18]; female, NOD/SCID, mouse, ip, 100 μmol/Kg, intraperitoneal, 100 umol/Kg, blood, 8 h post-dose, read-out: C8 h",0.93 ± 0.3 µM
same,AUC(0-t),"[18]; female, NOD/SCID, mouse, ip, intraperitoneal, 100 μmol/Kg, blood",50.3 ± 15.3 µM·h
same,Tmax,[18]; [31],15 min
same,Cmax,[18]; [31],27 ± 3.6 µM
same,AUC(0-t),"[18]; female, NOD/SCID, mouse, po, per os, 100 μmol/Kg, blood",2.5 ± 2.3 µM·h
same,Tmax,[18]; [32],60 min
same,Cmax,[18]; [32],0.2 ± 0.1 µM
same,time for which concentrations of at least 0.1 μmol/L are sustained post-dose,"[18]; intraperitoneal, 100 umol/Kg",more than 8 h
same,signs of discomfort or overt toxicity in treated mice,"[18]; single dose 100 μmol/Kg, per os or IP",No signs of discomfort or overt toxicity
same,IC50,[19],13.5 µM
same,%FS (Fractional Shortening) at one week post treatment,[20],42.38 ± 0.76%
same,"%FS (Fractional Shortening), baseline measurement",[20]; before treatment,47.48 ± 0.91%
same,MDA-MB-231 migration in wound healing assay,[21],inhibited MDA-MB-231 migration
same,IC50,[22],14.1 µM
same,IC50,[23],0.052 ± 0.014 µM
same,white blood cell populations,[24],2.54 ± 1.0 × 10^3 cells
same,IC50,[25],0.069 µM
same,uptake from fish embryos,[26],~50%
same,phosphorylation status of kinases in tumor extracts versus vehicle,[27],"marked downregulation of pErk1/2 (Thr202/Tyr204), pAkt (Ser473) and pGSK3 (Ser9)"
"CCN(CC)CCNC(=O)c1c(C)[nH]c(/C=C2\C(=O)Nc3ccc(F)cc32)c1C [sunitinib, reference compound]",IC50,[4],13.2 µM
same,AUC0−24 h,[28],21.4 ± 3.6 h x μmol/L
same,Cmax,[28],6.5 ± 0.9 µM
same,Tmax,[28],15 min
same,IC50,[6],11.2 µM
same,tumour growth versus vehicle,[7],significant tumour growth inhibition
same,average tumor size at d18,[8],152 ± 57 mm^3
same,neo-angiogenesis upon sacrifice,[8],only traces of newly formed blood vessels
same,average tumor weight upon sacrifice (d18),[8],0.07 ± 0.03 g
same,IC50,[11],0.072 ± 0.019 µM
same,tumour growth versus vehicle,[13],significant tumour growth inhibition
same,IC50,[14],11.5 µM
same,IC50,[19],13.9 µM
same,%FS (Fractional Shortening) at one week post treatment,[20],45.42 ± 0.11%
same,concentration at 1 h,[29],10.8 ± 2.1 µM
same,IC50,[22],11.4 µM
same,white blood cell populations,[24],2.24 ± 0.5 × 10^3 cells
same,phosphorylation status of kinases in tumor extracts versus vehicle,[27],"marked downregulation of pErk1/2 (Thr202/Tyr204), pAkt (Ser473) and pGSK3 (Ser9)"
same,concentration at 1 h,[30],10.3 ± 3.7 µM
